For two compounds, Ki results are on record in ChEMBL document CHEMBL1143163, “Structures of the ligand-binding core of iGluR2 in complex with the agonists (R)- and (S)-2-amino-3-(4-hydroxy-1,2,5-thiadiazol-3-yl)propionic acid explain their unusual equipotency” (J Med Chem, 2008).

For one experiment, the target named is Glutamate receptor 3 (Homo sapiens, UniProt P42263). Nature of the experiment: Binding affinity at iGluR3o receptor expressed in sf9 cells by radioligand binding assay.
Another experiment concerns the target Glutamate receptor 4 (Homo sapiens, UniProt P48058). Nature of the experiment: Binding affinity at iGluR4o receptor expressed in sf9 cells by radioligand binding assay.
Experiment [1] concerns the target T1, Glutamate receptor 2 (Homo sapiens, UniProt P42262). In words: Binding affinity at iGluR2 receptor S1S2J domain expressed in sf9 cells by radioligand binding assay.
The target of experiment [2] is Glutamate receptor ionotropic, kainate 2 (Homo sapiens, UniProt Q13002). Nature of the experiment: Binding affinity at iGluR6(V,C,R) receptor expressed in sf9 cells by radioligand binding assay.
The target of the next experiment is Glutamate receptor 1 (Homo sapiens, UniProt P42261). In words: Binding affinity at iGluR1o receptor expressed in sf9 cells by radioligand binding assay.
Experiment [3] addresses T1, Glutamate receptor 2. In words: Binding affinity at iGluR2o(R) receptor expressed in sf9 cells by radioligand binding assay.

T1 sequence (P42262 whole entry, the tested form may be a part): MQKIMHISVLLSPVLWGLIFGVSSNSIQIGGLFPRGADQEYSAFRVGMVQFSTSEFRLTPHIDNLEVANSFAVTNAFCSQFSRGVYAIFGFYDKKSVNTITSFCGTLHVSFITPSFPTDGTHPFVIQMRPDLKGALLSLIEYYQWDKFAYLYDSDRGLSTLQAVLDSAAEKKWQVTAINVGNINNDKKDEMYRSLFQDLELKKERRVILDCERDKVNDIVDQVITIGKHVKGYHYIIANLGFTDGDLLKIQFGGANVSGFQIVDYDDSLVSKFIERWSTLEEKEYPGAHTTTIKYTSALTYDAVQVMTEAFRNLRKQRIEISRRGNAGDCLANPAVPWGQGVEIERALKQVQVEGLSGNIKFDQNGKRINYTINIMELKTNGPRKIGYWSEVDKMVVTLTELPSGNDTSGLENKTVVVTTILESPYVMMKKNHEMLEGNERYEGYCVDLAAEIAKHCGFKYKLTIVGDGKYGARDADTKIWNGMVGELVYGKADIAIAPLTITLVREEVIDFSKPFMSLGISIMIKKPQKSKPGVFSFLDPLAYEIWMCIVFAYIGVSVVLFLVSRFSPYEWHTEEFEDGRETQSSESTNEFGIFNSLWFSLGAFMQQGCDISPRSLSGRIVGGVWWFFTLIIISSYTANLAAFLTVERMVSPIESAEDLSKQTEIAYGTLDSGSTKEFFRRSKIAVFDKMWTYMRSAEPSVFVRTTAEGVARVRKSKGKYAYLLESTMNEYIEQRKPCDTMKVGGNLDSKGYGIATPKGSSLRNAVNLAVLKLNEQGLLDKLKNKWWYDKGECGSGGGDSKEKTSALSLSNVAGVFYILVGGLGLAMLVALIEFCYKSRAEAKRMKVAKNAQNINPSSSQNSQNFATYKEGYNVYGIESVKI
Glutamate receptor 3, sequence (P42263 whole entry): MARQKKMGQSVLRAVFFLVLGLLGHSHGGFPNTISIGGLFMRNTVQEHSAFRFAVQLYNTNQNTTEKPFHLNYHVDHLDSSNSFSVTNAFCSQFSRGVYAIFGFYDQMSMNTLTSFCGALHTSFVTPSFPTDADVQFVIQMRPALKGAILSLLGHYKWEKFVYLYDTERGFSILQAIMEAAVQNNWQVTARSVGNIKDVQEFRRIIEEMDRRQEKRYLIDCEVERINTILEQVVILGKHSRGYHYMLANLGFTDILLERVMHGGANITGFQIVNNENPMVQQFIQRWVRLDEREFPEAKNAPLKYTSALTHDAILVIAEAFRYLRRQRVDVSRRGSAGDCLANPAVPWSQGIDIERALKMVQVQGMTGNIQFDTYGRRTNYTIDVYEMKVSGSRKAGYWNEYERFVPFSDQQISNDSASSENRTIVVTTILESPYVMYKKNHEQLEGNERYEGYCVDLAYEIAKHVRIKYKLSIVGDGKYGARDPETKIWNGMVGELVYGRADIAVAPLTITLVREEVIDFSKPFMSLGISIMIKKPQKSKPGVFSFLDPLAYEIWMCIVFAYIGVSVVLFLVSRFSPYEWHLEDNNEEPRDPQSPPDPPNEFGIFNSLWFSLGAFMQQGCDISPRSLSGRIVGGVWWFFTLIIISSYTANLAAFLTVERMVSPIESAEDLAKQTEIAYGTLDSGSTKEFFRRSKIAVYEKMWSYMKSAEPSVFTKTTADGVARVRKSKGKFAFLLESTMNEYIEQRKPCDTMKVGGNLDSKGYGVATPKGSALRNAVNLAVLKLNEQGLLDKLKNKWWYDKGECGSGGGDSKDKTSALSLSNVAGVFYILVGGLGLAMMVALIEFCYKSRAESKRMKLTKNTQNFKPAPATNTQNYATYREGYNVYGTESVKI
Glutamate receptor 1, sequence (P42261 whole entry): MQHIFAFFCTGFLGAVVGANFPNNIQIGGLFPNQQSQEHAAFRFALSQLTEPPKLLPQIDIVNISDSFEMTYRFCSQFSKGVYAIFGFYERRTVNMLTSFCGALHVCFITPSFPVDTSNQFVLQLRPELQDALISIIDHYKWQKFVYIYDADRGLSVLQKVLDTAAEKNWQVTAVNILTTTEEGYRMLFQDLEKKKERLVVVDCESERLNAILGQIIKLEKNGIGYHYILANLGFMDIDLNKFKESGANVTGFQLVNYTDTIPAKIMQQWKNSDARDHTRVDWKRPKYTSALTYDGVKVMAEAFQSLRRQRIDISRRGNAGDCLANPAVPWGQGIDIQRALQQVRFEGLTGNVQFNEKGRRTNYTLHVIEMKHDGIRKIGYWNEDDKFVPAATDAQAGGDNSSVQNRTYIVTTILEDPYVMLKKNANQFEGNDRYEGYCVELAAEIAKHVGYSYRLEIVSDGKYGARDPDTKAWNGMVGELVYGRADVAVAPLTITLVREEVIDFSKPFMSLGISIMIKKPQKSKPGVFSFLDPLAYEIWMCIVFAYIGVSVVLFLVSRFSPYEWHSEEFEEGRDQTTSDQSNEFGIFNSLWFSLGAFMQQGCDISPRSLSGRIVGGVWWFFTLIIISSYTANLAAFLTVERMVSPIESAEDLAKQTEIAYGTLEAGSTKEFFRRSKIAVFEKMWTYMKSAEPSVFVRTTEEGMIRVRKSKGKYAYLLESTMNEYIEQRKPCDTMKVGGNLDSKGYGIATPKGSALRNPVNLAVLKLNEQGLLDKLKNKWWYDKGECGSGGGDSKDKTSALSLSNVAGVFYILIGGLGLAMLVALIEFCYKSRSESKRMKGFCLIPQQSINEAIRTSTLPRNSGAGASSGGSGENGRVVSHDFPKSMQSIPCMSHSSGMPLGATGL
Glutamate receptor 4, sequence (P48058 whole entry, the tested form may be a part): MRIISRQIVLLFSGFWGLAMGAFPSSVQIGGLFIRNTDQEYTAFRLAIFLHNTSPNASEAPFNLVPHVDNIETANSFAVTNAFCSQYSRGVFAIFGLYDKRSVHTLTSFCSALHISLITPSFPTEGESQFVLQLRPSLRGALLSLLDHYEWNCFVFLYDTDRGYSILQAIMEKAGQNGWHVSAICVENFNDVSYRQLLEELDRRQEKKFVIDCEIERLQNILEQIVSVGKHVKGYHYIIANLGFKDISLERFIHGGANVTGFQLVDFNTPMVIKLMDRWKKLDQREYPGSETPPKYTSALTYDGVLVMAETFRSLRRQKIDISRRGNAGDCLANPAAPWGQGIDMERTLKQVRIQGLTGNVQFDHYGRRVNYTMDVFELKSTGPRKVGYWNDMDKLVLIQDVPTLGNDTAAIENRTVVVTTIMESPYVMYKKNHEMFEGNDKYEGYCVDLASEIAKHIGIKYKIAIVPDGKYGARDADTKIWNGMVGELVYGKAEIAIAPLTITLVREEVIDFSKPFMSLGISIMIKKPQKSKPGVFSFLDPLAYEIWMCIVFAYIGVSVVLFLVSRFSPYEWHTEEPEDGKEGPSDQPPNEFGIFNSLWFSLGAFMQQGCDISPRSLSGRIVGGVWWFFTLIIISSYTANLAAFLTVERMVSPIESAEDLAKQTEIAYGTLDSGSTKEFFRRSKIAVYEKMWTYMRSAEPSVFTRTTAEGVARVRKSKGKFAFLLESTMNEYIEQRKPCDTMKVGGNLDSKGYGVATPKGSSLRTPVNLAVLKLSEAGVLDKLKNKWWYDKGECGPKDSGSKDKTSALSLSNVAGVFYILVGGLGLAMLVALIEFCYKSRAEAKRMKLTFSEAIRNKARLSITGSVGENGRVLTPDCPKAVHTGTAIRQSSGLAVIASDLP
Glutamate receptor ionotropic, kainate 2, sequence (Q13002 whole entry): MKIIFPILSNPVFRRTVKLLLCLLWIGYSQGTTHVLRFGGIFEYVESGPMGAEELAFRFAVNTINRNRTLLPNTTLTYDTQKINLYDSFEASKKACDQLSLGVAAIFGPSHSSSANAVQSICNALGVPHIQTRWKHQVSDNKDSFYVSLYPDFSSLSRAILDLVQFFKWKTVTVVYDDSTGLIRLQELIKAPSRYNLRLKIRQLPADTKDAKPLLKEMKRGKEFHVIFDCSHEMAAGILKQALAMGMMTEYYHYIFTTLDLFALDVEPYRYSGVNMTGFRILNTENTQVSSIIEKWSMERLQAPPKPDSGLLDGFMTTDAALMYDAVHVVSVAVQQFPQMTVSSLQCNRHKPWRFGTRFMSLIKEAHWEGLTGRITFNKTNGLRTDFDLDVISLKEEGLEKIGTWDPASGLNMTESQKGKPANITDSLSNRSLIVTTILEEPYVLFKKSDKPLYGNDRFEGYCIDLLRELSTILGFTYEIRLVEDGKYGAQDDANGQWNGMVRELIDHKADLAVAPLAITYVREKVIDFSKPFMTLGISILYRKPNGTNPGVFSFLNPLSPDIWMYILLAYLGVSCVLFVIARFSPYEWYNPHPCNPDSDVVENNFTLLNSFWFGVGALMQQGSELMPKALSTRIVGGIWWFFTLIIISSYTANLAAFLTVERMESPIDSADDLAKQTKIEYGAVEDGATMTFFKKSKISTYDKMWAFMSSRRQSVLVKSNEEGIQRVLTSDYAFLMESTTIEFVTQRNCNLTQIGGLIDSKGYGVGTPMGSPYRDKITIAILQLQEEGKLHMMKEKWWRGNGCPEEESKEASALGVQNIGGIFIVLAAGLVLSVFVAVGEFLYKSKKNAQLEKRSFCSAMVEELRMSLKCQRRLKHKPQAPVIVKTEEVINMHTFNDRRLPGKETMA

For the compound `N[C@H](Cc1ns[nH]c1=O)C(=O)O`, the inhibition constant (Ki) was 1.07 µM on Glutamate receptor 3; 1.05 µM on Glutamate receptor 4; 0.531 µM on Glutamate receptor 2 [1]; over 1000 µM in experiment [2]; 0.15 µM on Glutamate receptor 1; 0.234 µM at Glutamate receptor 2 [3].

Take `N[C@@H](Cc1nsnc1O)C(=O)O`: the Ki at Glutamate receptor 3 was 0.16 µM; on Glutamate receptor 4 it was 0.182 µM; on Glutamate receptor 2 [1], 0.323 µM; in experiment [2], over 100 µM; at Glutamate receptor 1 it was 0.185 µM; at Glutamate receptor 2 [3] it was 0.273 µM.
